# Reference: ChEMBL document CHEMBL1201862, “PubChem BioAssay data set” (2004)
# Active and inactive are the calls of the source.
# What was measured:
# [1] = tested on: Vero; test: host cell cytotoxicity of antiviral hits, dose response, cytotoxicity control for West Nile virus antiviral project, secondary assay (AID 1650); format: functional; settings: Chlorocebus sabaeus
# [2] = biological target: T1, Microphthalmia-associated transcription factor (Homo sapiens, UniProt O75030); test: TRPM1 promoter luciferase signal decrease, dose response, MITF inhibitor project, cell-based, SK-MEL-5, cherry-picked, set 3 (AID 493073); format: functional
# T1 sequence (O75030 whole entry): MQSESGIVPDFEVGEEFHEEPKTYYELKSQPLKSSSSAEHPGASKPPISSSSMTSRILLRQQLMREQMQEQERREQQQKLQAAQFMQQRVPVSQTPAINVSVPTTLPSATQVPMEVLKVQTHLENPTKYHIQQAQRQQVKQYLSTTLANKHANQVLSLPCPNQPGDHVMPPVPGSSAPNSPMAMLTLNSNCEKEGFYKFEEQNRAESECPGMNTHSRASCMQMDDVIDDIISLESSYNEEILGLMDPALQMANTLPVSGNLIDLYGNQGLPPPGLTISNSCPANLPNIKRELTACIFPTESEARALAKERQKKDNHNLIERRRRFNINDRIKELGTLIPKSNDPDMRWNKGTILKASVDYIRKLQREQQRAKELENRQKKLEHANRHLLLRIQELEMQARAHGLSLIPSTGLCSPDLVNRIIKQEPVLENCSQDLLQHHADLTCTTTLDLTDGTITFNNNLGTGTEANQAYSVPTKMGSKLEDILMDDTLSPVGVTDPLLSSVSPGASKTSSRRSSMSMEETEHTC
# [3] = biological target: Interleukin-8 (Homo sapiens, UniProt P10145); test: Dose Response confirmation of uHTS small molecule hits for cystic fibrosis induced NFkb Inhibitors in a PAF-induced IL8 counterscreen.; format: functional; settings: read-out: IC50_Mean
# [4] = biological target: Paired box protein Pax-8 (Homo sapiens, UniProt Q06710); test: inhibitors of PAX8-driven TPO luciferase reporter, dose response, RMG-I cells, cherry-pick (AID 687027); format: functional, cell-based;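 also: luciferase reporter driven by Pax8 target thyroperoxidase promoter measured by SteadyGlo luminescence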
# [5] = PAX2 cell-based inhibition, dose response, selectivity assay for PAX8 inhibitor project, plate reader, dry powder samples (AID 743048); format: functional;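 also: HEK293 cells carrying a WT1 promoter luciferase reporter driven by expressed Pax2; potency is for inhibition of Pax2 driven reporter signal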
# [6] = PAX5 activity inhibitors, dose response, selectivity assay for PAX8 inhibitor project, cell-based, plate reader, dry powder samples (AID 743047); format: functional;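 also: HEK293 cells carrying a Pax5 driven CD19 promoter luciferase reporter; potency of inhibitors that lower reporter luminescence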
# [7] = IGROV1 ovarian cancer cell cytotoxicity, dose response, PAX8 inhibitor project, plate reader, dry powder samples (AID 743043); format: functional, cell-based; settings: IGROV-1
# [8] = cytotoxicity in OVCAR4 cells, dose response, cytotoxicity control for PAX8 inhibitor project, cell-based, plate reader, dry powder, SA11 (AID 743150); format: functional; settings: OVCAR-4
# [9] = cytotoxicity in COV434 cells, dose response, cytotoxicity control for PAX8 inhibitor project, cell-based, plate reader, dry powder, SA7 (AID 743145); format: functional
# [10] = cytotoxicity in OV-90 ovarian cancer cells, dose response, PAX8 inhibitor project, cell-based, plate reader, dry powder, SA8 (AID 743149); format: functional
# [11] = cytotoxicity dependent on PAX8, dose response, cell-based, plate reader, dry powder (AID 743049); format: functional
# [12] = biological target: T2, Apoptotic protease-activating factor 1 (Homo sapiens, UniProt O14727); test: SAR analysis of small molecule Activators of Apaf-1 in a Fluorescent assay.; format: functional; settings: read-out: EC50_Mean;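 also: caspase-3 cleavage of fluorogenic Rh110 DEVD substrate downstream of apoptosome activation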
# T2 sequence (O14727 whole entry): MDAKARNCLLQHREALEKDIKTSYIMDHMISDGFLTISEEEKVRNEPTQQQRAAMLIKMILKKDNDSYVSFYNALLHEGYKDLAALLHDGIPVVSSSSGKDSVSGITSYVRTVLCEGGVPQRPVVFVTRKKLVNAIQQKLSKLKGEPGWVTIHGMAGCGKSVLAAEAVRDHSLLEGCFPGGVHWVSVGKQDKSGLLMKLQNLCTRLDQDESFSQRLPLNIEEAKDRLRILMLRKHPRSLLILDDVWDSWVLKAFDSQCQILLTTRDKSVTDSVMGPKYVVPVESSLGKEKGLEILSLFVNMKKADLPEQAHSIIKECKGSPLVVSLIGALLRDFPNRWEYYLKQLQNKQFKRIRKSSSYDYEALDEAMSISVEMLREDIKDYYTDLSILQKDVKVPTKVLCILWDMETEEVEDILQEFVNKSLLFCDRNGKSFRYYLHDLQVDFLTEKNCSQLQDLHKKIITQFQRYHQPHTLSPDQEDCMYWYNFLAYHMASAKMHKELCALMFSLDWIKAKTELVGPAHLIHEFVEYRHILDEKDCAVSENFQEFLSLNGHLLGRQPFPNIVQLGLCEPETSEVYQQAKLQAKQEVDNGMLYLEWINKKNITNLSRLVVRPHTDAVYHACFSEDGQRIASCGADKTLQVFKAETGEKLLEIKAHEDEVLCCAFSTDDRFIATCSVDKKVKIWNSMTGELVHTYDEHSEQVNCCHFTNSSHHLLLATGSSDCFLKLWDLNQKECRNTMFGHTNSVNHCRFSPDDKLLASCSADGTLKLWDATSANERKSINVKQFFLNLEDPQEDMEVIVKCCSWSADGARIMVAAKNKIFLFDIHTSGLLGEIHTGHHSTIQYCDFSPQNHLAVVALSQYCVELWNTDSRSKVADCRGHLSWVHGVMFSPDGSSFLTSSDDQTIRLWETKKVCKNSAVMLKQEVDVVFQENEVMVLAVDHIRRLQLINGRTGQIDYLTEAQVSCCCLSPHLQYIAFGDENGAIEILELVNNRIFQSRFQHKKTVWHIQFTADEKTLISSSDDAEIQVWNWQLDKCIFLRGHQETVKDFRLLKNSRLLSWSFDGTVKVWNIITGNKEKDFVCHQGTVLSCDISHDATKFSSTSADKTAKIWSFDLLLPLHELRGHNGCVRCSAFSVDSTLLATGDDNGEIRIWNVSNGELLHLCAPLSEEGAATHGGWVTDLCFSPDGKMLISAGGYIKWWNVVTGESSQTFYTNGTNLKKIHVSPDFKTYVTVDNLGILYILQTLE
# [13] = biological target: Melanocortin receptor 4 (Homo sapiens, UniProt P32245); format: functional, cell-based;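 also: Cell-based assay with luminescence read-out, confirmatory dose-response testing for agonist activity of biased ligands at MC4R; human U2OS cells with tagged receptor and beta-arrestin; potency of agonists that increase receptor coupling to beta-arrestin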
# Chain of Melanocortin receptor 4 (P32245 whole entry): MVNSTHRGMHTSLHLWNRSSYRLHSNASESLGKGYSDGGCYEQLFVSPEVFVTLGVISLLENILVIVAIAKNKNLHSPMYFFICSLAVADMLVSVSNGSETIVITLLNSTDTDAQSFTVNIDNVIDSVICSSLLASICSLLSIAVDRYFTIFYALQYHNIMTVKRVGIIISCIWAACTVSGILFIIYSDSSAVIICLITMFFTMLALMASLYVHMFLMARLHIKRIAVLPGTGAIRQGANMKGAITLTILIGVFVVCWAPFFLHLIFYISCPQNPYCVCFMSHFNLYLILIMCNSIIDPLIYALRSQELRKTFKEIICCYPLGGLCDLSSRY
# Chain of Interleukin-8 (P10145 whole entry): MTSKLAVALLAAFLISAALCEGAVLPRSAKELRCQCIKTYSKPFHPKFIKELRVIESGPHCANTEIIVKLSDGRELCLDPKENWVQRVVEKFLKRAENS
# Chain of Paired box protein Pax-8 (Q06710 whole entry): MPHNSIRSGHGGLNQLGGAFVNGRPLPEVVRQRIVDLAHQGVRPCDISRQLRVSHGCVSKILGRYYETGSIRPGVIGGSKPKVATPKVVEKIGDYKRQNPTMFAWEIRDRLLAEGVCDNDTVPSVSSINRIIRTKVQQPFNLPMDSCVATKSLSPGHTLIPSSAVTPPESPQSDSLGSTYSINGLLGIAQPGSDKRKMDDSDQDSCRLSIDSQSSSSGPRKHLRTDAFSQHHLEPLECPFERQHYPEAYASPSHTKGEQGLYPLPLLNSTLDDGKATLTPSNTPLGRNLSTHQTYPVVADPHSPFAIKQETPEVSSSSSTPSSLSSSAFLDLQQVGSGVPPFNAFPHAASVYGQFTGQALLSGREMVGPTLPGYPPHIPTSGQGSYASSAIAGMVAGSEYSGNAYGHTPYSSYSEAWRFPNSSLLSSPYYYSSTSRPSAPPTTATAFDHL
smiles,measurement,setting,value
Cc1ccc(S(=O)(=O)CC(CN2CCCCC2)N2CCCCC2)cc1 (stereo not drawn),CC50,[1],8.81 µM (active)
same,AC50,[2],8.1 µM (active)
same,IC50,[3],4.55 µM (active)
same,AC50,[4],4.72 µM (active)
same,AC50,[5],> 100 µM (inactive)
same,AC50,[6],22.9 µM (active)
same,AC50,[7],46.5 µM (active)
same,AC50,[8],80.7 µM (active)
same,AC50,[9],9.72 µM (active)
same,AC50,[10],15.7 µM (active)
same,AC50,[11],17.1 µM (active)
Cc1cccc(C)c1N1C(=O)CC2(CC(c3ccc4c(c3)OCCO4)=NO2)C1=O (stereo not drawn),EC50,[12],> 100 µM (inactive)
COc1ccc(NC(=O)Nc2nc(C(N)Cc3ccc(C(F)(F)F)cc3)cs2)cc1 (stereo not drawn),EC50,[13],> 89.2 µM (inactive)
